Measured values published in patent US10857228B2, “Adjuvant for vaccines, vaccine, and immunity induction method” (The University of Tokyo, priority 2015, dated 2020).

B1: granulocyte monocyte colony stimulating factor (protein, UniProt P01587 18-141, looked up)
Granulocyte-macrophage …: APTRSPITVTRPWKHVEAIKEALNLLDDMPVTLNEEVEVVSNEFSFKKLTCVQTRLKIFEQGLRGNFTKLKGALNMTASYYQTYCPPTPETDCETQVTTYADFIDSLKTFLTDIPFECKKPGQK
notes: inducer of expression of Raldh2; added with CpG ODN to stimulate spleen cDCs

Experiments:
[1] = test system: pulmonary mucosa lamina propria cells; test: Cytokine production of pulmonary mucosa lamina propria cells after intranasal booster; type: in vivo, mice; conditions: 7 days after intranasal OVA, cultured 4 days with OVA 100 μg/ml
Procedure: IFA, IFA+OVA+CpG ODN, IFA+OVA+curdlan, and IFA+OVA+CpG ODN+curdlan were administered to mice by intramuscular injection, respectively. On Day 35, 1 μg/mouse of OVA was administered by intranasal administration to perform booster immunization, and, 7 days later antigen-specific total IgG in the serum and IgA in the bronchoalveolar lavage fluid were measured by ELISA.
In the experiment of 9, 7 days after the intranasal administration of OVA, pulmonary mucosa lamina propria cells were extracted from the mice and cultured in the presence of the antigen (OVA 100 μg/ml) for 4 days and IFN-γ, IL-4, and IL-17 production was measured by ELISA.

[2] = test system: Raldh2; test: Induction of Raldh2 mRNA expression in spleen cDCs (RT-PCR); type: cell-based; conditions: spleen cDCs stimulated 24 hours
Procedure: Next, zymosan (component of yeast cell wall of Saccharomyces cerevisiae; 25 ng/ml) and curdlan ((β-1,3-glucan derived from Agrobacterium spp., Alcaligenes spp.; 25 ng/ml) were used as glucan-based compound. Spleen cDCs were stimulated with these substances for 24 hours and, after collecting RNA, the expression of Raldh2 mRNA was measured by RT-PCR.

[3] = test system: Dectin-1; test: Expression of Dectin-1 in spleen-derived dendritic cells with CpG ODN stimulation; type: cell-based; conditions: spleen-derived dendritic cells stimulated with CpG ODN
Procedure: Next, the expression of Dectin-1, which is a receptor that recognizes β-1,3-glucan, in dendritic cells was measured. The summary and the result of the experiment are illustrated in FIG. 12. As illustrated in the left panel in the figure, it was confirmed that, in spleen-derived dendritic cells, the expression of Dectin-1 is not high, but the expression of Dectin-1 increases more than 3 times by stimulating the cells with CpG ODN. Dectin-1 is known to induce the Th17 response. These indicate the mechanism of the present invention in which the addition of both of CpG ODN and β-1,3-glucan to the adjuvant makes dendritic cells easy to receive the stimulation with β-1,3-glucan and induces the Th17 response.

[4] = test system: CD57BL/6 mice; test: IgA induction by spleen cDCs stimulated with OVA, CpG ODN and GM-CSF, intraperitoneally administered to mice; type: in vivo; conditions: spleen cDCs stimulated 24 hours with OVA 100 μg/ml and adjuvant, given i.p. Day 0 and Day 14; oral OVA Day 21 to 25; ELISA Day 32
Procedure: Spleen cDCs were stimulated for 24 hours using ovalbumin (OVA; 100 μg/ml) as an antigen and CpG ODN 1668 (1 μg/ml) only or the combination of CpG ODN and GM-CSF (10 ng/ml) as an adjuvant.
Here, the fractioning of murine small intestine mucosa lamina propria cells with the dendritic cell marker CD11c and the macrophage marker CD11b produces the 4 groups: R1 (dendritic cells) (CD11c high CD11b low), R2 (dendritic cells) (CD11c high CD11b high), R3 (macrophages) (CD11c int CD11b int), R4 (acidophiles) (CD11c int CD11b high). The R2 dendritic cells specifically express Raldh2 and induce the Th17 response and the IgA production (Non-Patent Literature 1). Therefore, the R2 dendritic cells were stimulated with OVA (100 μg/ml) and CpG ODN 1668 (1 μg/ml) as positive control. Spleen cDCs were stimulated with OVA (100 μg/ml) and CpG ODN 1668 (1 μg/ml) with or without GM-CSF (10 ng/ml).
On Day 0 and Day 14 after the stimulation, dendritic cells (each 5×10^4 cells) (or PBS) which took up the antigen were intraperitoneally administered into CD57BL/6 mice. On Day 21 to Day 25, 1 mg/mouse of OVA was orally administered daily and, on Day 32, total of antigen-specific IpG in serum and antigen-specific IgA in feces were measured by ELISA.

Molecule	IFN-γ production [1]	expression of Raldh2 mRNA [2]	increase of expression of Dectin-1 [3]	antigen-specific IgA in feces [4]
curdlan	induced	induced the expression of Raldh2	–	–
CpG ODN 1668	induced	–	more than 3 times	induced little production of IgA
B1	–	induced the expression of Raldh2	–	induced IgA production more than the R2 dendritic cells
